The nature of experiment [1]: Inhibitory concentration against human p21 proficient cell (p21+/+) proliferation.
The nature of experiment [2]: Inhibitory concentration against human p21 deficient cell (p21-/-) proliferation.
Experiment [3] in a line: Inhibitory concentration against human p21 […] cell (p21+/+) proliferation.

By IC50 is commonly meant the midpoint of a concentration-inhibition curve. A high value points to weaker potency in that assay.

For the compound `COc1ccc(-c2nc3sc4c(c3c(=O)[nH]2)CCCC4)cc1OC`, the 50% inhibitory concentration (IC50) in experiment [1] and in experiment [2] was more than 20 µM each time.

As for `COc1cc(-c2nc3sc4c(c3c(=O)[nH]2)CCCC4)cc(OC)c1OC`, in experiment [3], the IC50 is more than 20 µM.

`O=C(c1cccs1)c1cnn2c(-c3cccc(NC(=O)C4CC4)c3)ccnc12` yielded a half-maximal inhibitory concentration (IC50) in experiment [3] of 12 µM.

Values taken from BindingDB's records for doi:10.1016/j.bmcl.2005.05.127 (Wyeth Research, 2005).
